Data from patent publication US7776833B2, “Use of cyclic bioisosters of purine system derivatives for treating diseases produced by disorders of niterergic and dopaminergic systems” (priority 2003, dated 2010).

Tests used:
Format in all cases: in vivo, Wistar rats
[1] = test system: physical dependence from morphine (morphine abstinence); experiment: Morphine abstinence syndrome, signs scored in the open field test; details: Morphine − (morphine + compound); compound 3 x 20 mg/kg intramuscularly; one value for the three compounds
Experimental: Thirty six hours after the last injection selected motor and autonomice parameters which are specific symptoms of abstinence were monitored in the <<open field>> test (an arena with a diameter of 120 cm and wall height of 40 cm).
Med., 2002, V.29, p.1-6.). The observable signs were recorded quantitatively (if it was possible) with further assignment of an index to each sign (depending on the specific feature of the sign) and calculation of the sum of scores. The expression of the abstinence syndrome was presented as a sum of scores. The results were processed using nonparametric statistical analysis based on the Mann-Whitney test.

[2] = test system: nitrites and nitrates (NOx-); experiment: Measurement of nitrates/nitrites (NOx-) in brain regions after the morphine abstinence experiment; details: 3 x 20 mg/kg intramuscularly
Experimental: (§1) After the above experiments the rat brains were isolated and immediately placed in the ice cold 0.9% solution of sodium chloride. After cooling the following structures were isolated from the brain: cerebral cortex, hippocampus, mesencephalon, striatum, brainstem, hypothalamus and cerebellum. The isolated tissue was homogenized in a Potter S homogenizer for 3 minutes at 1500 rpm in 4-5 volumes of 20 mM HEPES (pH 7.5) at 4° C. The supernatants were centrifuged for 30 minutes at 11000 g at 4° C., and aliquots of the obtained supernatants were taken for determining nitrates and nitrites (NOx-), while the remaining part was mixed with cooled 20 mM of HEPES (pH 7.5), containing 0.5 mM ethylenediamine tetraacetate (EDTA), 1 mM dithiotreitol (DDT), 1 mM phenylmethylsulfonyl fluoride (PMSF), aprotinine and leupeptine at a concentration of 5 μg/ml, this mixture being used for determining nitric oxide synthase (NOS) activity.
To estimate the intensity of metabolism of nitric oxide in rats, quantitative determination of stable metabolites of nitrogen oxide-nitrites and nitrates (NOx-) was performed using a fluorometric method by fluorescence of naphthotriazole, a product of reaction of 2,3- diaminonaphthalene (DAN) and nitrite in an acidic medium (Misko T. R., Schilling R. J., Salvemini D. et al. A fluorometric assay for the measurement of nitrite in biological samples. Anal. Biochem., 1993, V. 214, p.11-16) with modifications (Lei B., Adachi N., Nagaro T., Arai T. Measurement of total nitric oxide metabolite (NO (x) (-)) levels in vivo. Brain. Res. Protoc., 1999, V. 4, p. 415-419).
The supernatants of brain deproteinized at 100° C. were placed in a nitrite recovery system containing 0.125 unit/ml of nitrate reductase, 25 μM NADPH and 25 μM FAD prepared in 20 mM Tris-HCl buffer pH 7.6 and incubated for 30 minutes at 37° C. For oxidation of NADPH a lactate dehydrogenase (LDH)/pyruvate system was used. Then 316.0 μM DAN solution in 0.62 M HCl was added and the mixture was incubated for 10 minutes in dark. For stabilization of fluorescence of the formed naphthotriazole, 280 mM NaOH was added. The fluorescence intensity was measured using spectrofluorometer Hitachi F-3000 at a wavelength of excitation 365 nm and emission 405 nm. To calculate the concentration of NOx- in the brain a standard solution of sodium nitrate was used. The concentration of NOx- was expressed in nmol/mg of protein.
(§2) The content of protein in the samples was determined by the Bradford method (Bradford M. M. A rapid and sensitive method for quantitation of microgram quantities of protein using the principle of protein binding . Anal. Biochem., 1976, V. 72, p. 248-254) using Coumassi dye. The statistical analysis was performed using methods appropriate for respective experiments. The data are expressed as mean±standard error of mean.

[3] = test system: nitric oxide synthase (NOS); experiment: Nitric oxide synthase activity in brain regions, radiometric [3H]L-citrulline method; details: 3 x 20 mg/kg intramuscularly
Experimental: as §1
The activity of nitric oxide synthase (NOS) was determined using a radiometric method by the rate of L-citrulline accumulation in a reaction of [^3H] L-arginine oxidation catalyzed by NOS (Bredt M., Snyder S. Nitric oxide mediates glutamate-linked enhancement of cGMP levels in the cerebellum. Proc. Natl. Acad. Sci., USA, 1989, V.86, p.9030-9033). The formation of L-citrulline in this reaction is equivalent to a biosynthesis of nitric oxide.
The reaction was initiated by adding brain supernatant in the reaction medium containing 2 μCi/ml of [3H] L-arginine, 20 mM HEPES (pH 7.4), 0.2 mM CaCl2, 5 μM FAD, 5 μM FMN, 1 mM NADPH, 50 μM of BH4. After 15-60 minutes of incubation at 37° C. a suspension of Dowex 50WX8-400 (Na^+-form), which sorbs unreacted [^3H]L-arginine, but not [^3H] L-citrulline was added to the samples. After the sorption the radioactivity of the samples was determined on a scintillation counter SL-4000 (“Intertechnique”). The activity of Ca^2+-dependent and Ca^2+-independent NOS isoforms was determined by the difference of rates of [^3H]L-citrulline formation in three parallel samples containing 2 mM EDTA (Ca^2+ chelator), 2 mM EDTA+2 mM L-NAME (inhibitor all NOS isoforms) or without inhibitors. The enzyme activity was expressed in rnol [^3H]L-citrulline acumulated per 1 minute on 1 mg of supernatant protein.
as §2

[4] = Groups Nos. 3-14, compound without morphine, one value for all 12 compounds
[5] = Morphine + compound, one value for the three compounds

Compound	Authentic differences (ξ-square criterion) in appearance of signs of abstinence: <<Wet dog>> shakes [1]	Authentic differences (ξ-square criterion) in appearance of signs of abstinence: Aggression [1]	Authentic differences (ξ-square criterion) in appearance of signs of abstinence: Convulsions [1]	Authentic differences (ξ-square criterion) in appearance of signs of abstinence: Diarrhea [1]	Authentic differences (ξ-square criterion) in appearance of signs of abstinence: Dyspnea [1]	Authentic differences (ξ-square criterion) in appearance of signs of abstinence: Forelimb jogging [1]	Authentic differences (ξ-square criterion) in appearance of signs of abstinence: Grit with teeth [1]	Authentic differences (ξ-square criterion) in appearance of signs of abstinence: Mastication [1]	Authentic differences (ξ-square criterion) in appearance of signs of abstinence: Piloerection [1]	Authentic differences (ξ-square criterion) in appearance of signs of abstinence: Ptosis [1]	Authentic differences (ξ-square criterion) in appearance of signs of abstinence: Rhinorrhea [1]	Authentic differences (ξ-square criterion) in appearance of signs of abstinence: Squeak when touched [1]	Nitrites, brainstem [2, 4]	Nitrites, cerebellum [2, 4]	Nitrites, cerebral cortex [2, 4]	Nitrites, hippocampus [2, 4]	Nitrites, hypothalamus [2, 4]	Nitrites, midbrain [2, 4]	Nitrites, striatum [2, 4]	Nitrites, brainstem [2, 5]	also measured
O=c1[nH][nH]c(=O)c2ncccc12.[Li] [Compound 6, lithium salt of pyrido [2,3-d]-6H-pyridazine-5,8-dione]	1.0000	0.8327	0.7821	0.0046	0.0722	0.7821	0.7144	0.1888	0.1847	0.0201	0.3017	0.1888	6.31 ± 0.58 nmol/mg of protein	6.66 ± 0.63 nmol/mg of protein	4.31 ± 0.37 nmol/mg of protein	6.47 ± 0.72 nmol/mg of protein	6.77 ± 0.83 nmol/mg of protein	6.65 ± 0.70 nmol/mg of protein	6.11 ± 0.29 nmol/mg of protein	6.57 ± 0.72 nmol/mg of protein	Nitrites, cerebellum [2, 5]: 5.46 ± 0.44 nmol/mg of protein; Nitrites, cerebral cortex [2, 5]: 4.72 ± 0.37 nmol/mg of protein; Nitrites, hippocampus [2, 5]: 5.44 ± 0.43 nmol/mg of protein; Nitrites, hypothalamus [2, 5]: 6.57 ± 0.88 nmol/mg of protein; Nitrites, midbrain [2, 5]: 5.50 ± 0.48 nmol/mg of protein; Nitrites, striatum [2, 5]: 3.57 ± 0.42 nmol/mg of protein; Activity of NOS, hippocampus [3, 4]: 3.09 ± 0.16 nmol/min/mg of protein; Activity of NOS, hypothalamus [3, 4]: 5.45 ± 0.24 nmol/min/mg of protein; Activity of NOS, midbrain [3, 4]: 2.60 ± 0.29 nmol/min/mg of protein; Activity of NOS, striatum [3, 4]: 1.26 ± 0.08 nmol/min/mg of protein; Activity of NOS, hippocampus [3, 5]: 2.70 ± 0.14 nmol/min/mg of protein; Activity of NOS, hypothalamus [3, 5]: 5.26 ± 0.28 nmol/min/mg of protein; Activity of NOS, midbrain [3, 5]: 1.83 ± 0.23 nmol/min/mg of protein; Activity of NOS, striatum [3, 5]: 1.24 ± 0.08 nmol/min/mg of protein
Nc1cccc2c(=O)n([C@@H]3O[C@H](CO)[C@@H](O)[C@H]3O)[nH]c(=O)c12.[Na] [Compound 10, sodium salt of 5-amino-2-(β-D-ribofuranosile)benzo[d]-3H-pyridazine-1,4-dione]	0.7562	0.8456	0.7546	0.0032	0.0834	0.8217	0.8652	0.1032	0.2567	0.0320	0.4032	0.1342	6.31 ± 0.58 nmol/mg of protein	6.66 ± 0.63 nmol/mg of protein	4.31 ± 0.37 nmol/mg of protein	6.47 ± 0.72 nmol/mg of protein	6.77 ± 0.83 nmol/mg of protein	6.65 ± 0.70 nmol/mg of protein	6.11 ± 0.29 nmol/mg of protein	6.99 ± 0.82 nmol/mg of protein	Nitrites, cerebellum [2, 5]: 5.85 ± 0.47 nmol/mg of protein; Nitrites, cerebral cortex [2, 5]: 4.93 ± 0.39 nmol/mg of protein; Nitrites, hippocampus [2, 5]: 5.24 ± 0.49 nmol/mg of protein; Nitrites, hypothalamus [2, 5]: 6.91 ± 0.58 nmol/mg of protein; Nitrites, midbrain [2, 5]: 5.75 ± 0.39 nmol/mg of protein; Nitrites, striatum [2, 5]: 3.57 ± 0.42 nmol/mg of protein; Activity of NOS, hippocampus [3, 4]: 3.09 ± 0.16 nmol/min/mg of protein; Activity of NOS, hypothalamus [3, 4]: 5.45 ± 0.24 nmol/min/mg of protein; Activity of NOS, midbrain [3, 4]: 2.60 ± 0.29 nmol/min/mg of protein; Activity of NOS, striatum [3, 4]: 1.26 ± 0.08 nmol/min/mg of protein; Activity of NOS, hippocampus [3, 5]: 2.51 ± 0.19 nmol/min/mg of protein; Activity of NOS, hypothalamus [3, 5]: 5.36 ± 0.33 nmol/min/mg of protein; Activity of NOS, midbrain [3, 5]: 1.99 ± 0.29 nmol/min/mg of protein; Activity of NOS, striatum [3, 5]: 1.29 ± 0.09 nmol/min/mg of protein
